Patent US7078400B2, “20-HETE synthase inhibitor” (Taisho Pharmaceutical Co., Ltd., priority 1999, dated 2006)

Legend:
[1] = system: 20-HETE synthase originated from rat kidney microsome; assay: Inhibitory effect of 20-HETE synthase originated from rat kidney microsome; format: biochemical; conditions: for Inhibition rate (1 μM): 20-HETE production without compound set to 100%
Method in brief: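 Kidney microsomes from 6-week male spontaneously hypertensive rats were used with tritium-arachidonic acid and NADPH. 20-HETE was quantified by radio-HPLC on a C18 column.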

[2] = concentration at which production of 20-HETE was inhibited to 50%
[3] = 1 μM of subject compound, rat kidney microsome
[4] = concentration at which 20-HETE production was inhibited to 50%, rat kidney microsome

Row | Compound | Inhibition rate (1 μM) ([1]; 1 μM of the subject compound) | IC50 [1, 2] | melting point | Inhibition rate (1 μM) [1, 3] | IC50 [1, 4] | Inhibition rate (1 μM) ([1]; 1 μM of the subject compound added, rat kidney microsome) | IC50 ([1]; concentration at which production of 20-HETE was inhibited to 50%, rat kidney microsome)
1 | CN1CCCC1CCOc1ccc(N/C=N/O)cc1 (stereo not drawn) [Comp. 416] | 85.8 | 16.3 nM | 99.5 to 102.5 °C |  |  |  | 
2 | O/N=C/Nc1ccc(OCc2ccc(F)cc2)cc1 [Comp. 392] |  |  | 165.5 to 166 °C | 109.6 | 2.4 nM |  | 
3 | CN1CCCC(COc2ccc(N/C=N/O)cc2)C1 (stereo not drawn) [Comp. 415] | 103.7 | 17.6 nM | 114 to 117 °C |  |  |  | 
4 | CN(C)CCCOc1ccc(N/C=N/O)cc1 [Comp. 400] | 116.9 | 48.7 nM | 115 to 117 °C |  |  |  | 
5 | Cc1ccc(N/C=N/O)cc1I [Comp. 55] |  |  | 130.5 to 132 °C |  |  | 31.3 | 
6 | O/N=C/Nc1ccc(F)cc1F [Comp. 50] |  |  | 155.5 to 156.5 °C |  |  |  | 25.5 nM
7 | O/N=C/Nc1ccc(OCCCN2CCCCC2)cc1 [Comp. 428] |  | 51.5 nM | 143.5 to 144.5 °C |  |  |  | 
8 | O/N=C/Nc1ccc(OCCc2cccs2)cc1 [Comp. 422] | 121.6 | 1.5 nM | 132 to 134 °C |  |  |  | 
9 | CC#CCCOc1ccc(N/C=N/O)cc1 [Comp. 337] |  |  | 135 to 136.5 °C | 119.4 | 2.1 nM |  | 
10 | O=C1CCCN1CCOc1ccc(N/C=N/O)cc1 [Comp. 407] | 94.3 | 4.9 nM | 127.5 to 129.5 °C |  |  |  | 
